# Where two headings read alike, the source gives them in different places. Numbered stars: 1 amine (or outer) side, 2 acyl side, 3 side chain; on linkers, the order of the positions; unused ones are H or OH. Square brackets hold non-standard residues; d marks the D form. Side chains are listed from the residue outwards. Peptide text beside a SMILES is read from it. * marks the point of attachment. C20 diacid = O=C(O)CCCCCCCCCCCCCCCCCCC(=O)*; Phe(4-CH2NH2) = NCc1ccc(C[C@H](N)C(=O)O)cc1; C18 diacid = O=C(O)CCCCCCCCCCCCCCCCC(=O)*; γGlu = O=C(O)[C@H](CCC(=O)[*:2])N[*:1]; Met(O2) = CS(=O)(=O)CC[C@H](N)C(=O)O; αMeD = C[C@](N)(CC(=O)O)C(=O)O; AEEA = NCCOCCOCC(=O)O; Aib = CC(C)(N)C(=O)O
# Columns and labels:
# human GCGR = biological target: T1, human GCGR (Homo sapiens, UniProt P47871); test: cAMP activity assay at the Glucagon receptor (GCGR); type: cell-based; details: for hGCGR/hGLP1R (hTone): ratio of GCGR EC50 to GLP1R EC50
# T1 construct: expressed in transfected cells; growth medium holds Blasticidin and Hygromycin
# T1 sequence (P47871 26-477): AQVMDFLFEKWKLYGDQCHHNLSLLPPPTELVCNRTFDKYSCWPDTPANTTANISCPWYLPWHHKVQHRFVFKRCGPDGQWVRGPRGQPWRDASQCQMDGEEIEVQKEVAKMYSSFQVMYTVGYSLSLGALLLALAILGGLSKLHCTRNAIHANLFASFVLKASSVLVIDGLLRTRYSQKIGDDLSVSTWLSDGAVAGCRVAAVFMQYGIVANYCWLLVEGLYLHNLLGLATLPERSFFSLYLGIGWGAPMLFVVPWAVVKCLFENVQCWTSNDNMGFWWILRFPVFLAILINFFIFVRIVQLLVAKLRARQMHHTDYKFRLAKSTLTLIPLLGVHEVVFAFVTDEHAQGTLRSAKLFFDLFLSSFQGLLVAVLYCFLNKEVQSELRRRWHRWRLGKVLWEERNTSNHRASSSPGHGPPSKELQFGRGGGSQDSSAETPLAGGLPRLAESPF
# Outline: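 Peptides serially diluted from DMSO (10 points) and added to frozen-stock cells bearing human GLP1R (10,000 cells/well) or GCGR (30,000 cells/well), 1 h at RT, dark. EC50 by four-parameter logistic fit of HitHunter cAMPXS luminescence, read following overnight RT incubation.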
# human GLP1R = biological target: T2, human GLP1R (Homo sapiens, UniProt P43220); test: cAMP activity assay at the GLP-1 receptor (GLP1R); type: cell-based
# T2 construct: expressed in transfected cells; growth medium holds Blasticidin and Hygromycin
# T2 sequence (P43220 24-463): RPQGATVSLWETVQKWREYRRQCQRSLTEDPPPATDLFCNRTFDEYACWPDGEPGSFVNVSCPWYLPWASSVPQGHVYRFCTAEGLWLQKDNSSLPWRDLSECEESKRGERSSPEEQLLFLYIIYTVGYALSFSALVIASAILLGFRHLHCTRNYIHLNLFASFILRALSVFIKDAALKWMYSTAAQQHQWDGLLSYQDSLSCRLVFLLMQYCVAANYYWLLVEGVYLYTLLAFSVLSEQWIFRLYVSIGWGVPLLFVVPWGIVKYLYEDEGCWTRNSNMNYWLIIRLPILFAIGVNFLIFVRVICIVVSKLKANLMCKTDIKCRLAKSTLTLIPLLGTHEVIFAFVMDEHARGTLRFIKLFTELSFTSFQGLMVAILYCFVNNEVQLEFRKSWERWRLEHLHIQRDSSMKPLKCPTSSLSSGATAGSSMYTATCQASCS
# Procedure: Activity of the peptides at the Glucagon receptor (GCGR) and GLP-1 receptor (GLP1R) was measured in a cAMP activity assay.
# GCG/GLP-1 receptor co-agonist peptides were dissolved in 100% DMSO (dimethyl sulfoxide) and serially diluted to generate 10 point titrations. The peptide solutions were then transferred into 384-well assay plates (150 nL/well). Assay ready frozen cells expressing human GLP1R or human GCGR were suspended in growth media consisting of DMEM medium (GIBCO®), 10% FBS (GIBCO®), 1×NEAA(GIBCO®), 1×P/S (GIBCO®), 10 ug/mL Blasticidin (GIBCO®) and 200 μg/mL Hygromycin (GIBCO®). […] The cell suspensions (15 μL) were then added to the assay plates containing the peptide solutions (30,000 cells/well for human GCGR; 10,000 cells/well for human GLP1R). The cells were incubated for 1 hour at room temperature in the dark. Production of cAMP was determined using HitHunter™ cAMPXS kits (DiscoverX) following manufacturer protocol. The plates were incubated for overnight at room temperature in the dark. Luminescence was measured using an EnVision Multilabel plate reader (Perkin Elmer). Native GLP-1 and Glucagon (Bachem) are used as control peptides. EC50 values were calculated using uses a 4 parameter logistic fit based on the Levenberg-Marquardt algorithm.
# [1] = summary statement: EC50 at each of the glucagon and GLP-1 receptors, read-out: EC50 at the glucagon receptor
# [2] = cells expressing human GLP1R, cAMP production, buffer with or without 20% human serum (not stated which), read-out: GLP1R EC50 human
# [3] = summary statement: EC50 at each of the glucagon and GLP-1 receptors, read-out: EC50 at the GLP-1 receptor
compound,measurement,setting,value
CC(C)C[C@H](NC(=O)[C@H](Cc1ccc(O)cc1)NC(=O)[C@H](CCCCN)NC(=O)[C@H](CO)NC(=O)[C@H](Cc1ccc(O)cc1)NC(=O)[C@H](CC(=O)O)NC(=O)[C@H](CO)NC(=O)[C@H](CC(C)C)NC(=O)[C@H](Cc1ccccc1)NC(=O)[C@@H](NC(=O)CNC(=O)[C@H](CCC(N)=O)NC(=O)C(C)(C)NC(=O)[C@@H](N)Cc1c[nH]cn1)[C@@H](C)O)C(=O)N[C@@H](CC(=O)O)C(=O)N[C@@H](C)C(=O)N[C@@H](CCCNC(=N)N)C(=O)N[C@@H](C)C(=O)N[C@@H](C)C(=O)N[C@@H](CCCCNC(=O)COCCOCCNC(=O)COCCOCCNC(=O)CC[C@H](NC(=O)CCCCCCCCCCCCCCCCC(=O)O)C(=O)O)C(=O)N[C@@H](CC(=O)O)C(=O)N[C@@H](Cc1ccccc1)C(=O)N[C@H](C(=O)N[C@@H](CCC(N)=O)C(=O)N[C@@H](Cc1c[nH]c2ccccc12)C(=O)N[C@@H](CC(C)C)C(=O)N[C@@H](CCS(C)(=O)=O)C(=O)N[C@@H](CC(=O)O)C(=O)N[C@H](C(N)=O)[C@@H](C)O)C(C)C [TP596] (H-H[Aib]QGTFLSDYSKYLDARAAK([AEEA-AEEA-γGlu-C18 diacid])DFVQWL[Met(O2)]DT-NH2; N-terminus assumed),EC50,"human GCGR; cells expressing human GCGR, cAMP production, buffer with or without 20% human serum (not stated which), read-out: GCGR EC50 human",0.35 nM
same,hGCGR/hGLP1R (hTone),human GCGR,0.2
same,EC50,human GCGR; [1],< 5 nM
same,EC50,human GLP1R; [2],> 20 nM
same,EC50,human GLP1R; [3],< 5 nM
CC(C)C[C@H](NC(=O)[C@H](C)NC(=O)[C@H](CC(=O)O)NC(=O)[C@H](CC(C)C)NC(=O)[C@H](Cc1ccc(O)cc1)NC(=O)[C@H](CCCCN)NC(=O)[C@H](CO)NC(=O)[C@H](Cc1ccc(O)cc1)NC(=O)[C@H](CC(=O)O)NC(=O)[C@H](CO)NC(=O)[C@@H](NC(=O)[C@H](Cc1ccccc1)NC(=O)[C@@H](NC(=O)CNC(=O)[C@H](CCC(N)=O)NC(=O)C(C)(C)NC(=O)[C@@H](N)Cc1c[nH]cn1)[C@@H](C)O)[C@@H](C)O)C(=O)N[C@@H](C)C(=O)N[C@@H](C)C(=O)N[C@@H](CCCCNC(=O)COCCOCCNC(=O)COCCOCCNC(=O)CC[C@H](NC(=O)CCCCCCCCCCCCCCCCC(=O)O)C(=O)O)C(=O)N[C@@H](CC(=O)O)C(=O)N[C@@H](Cc1ccccc1)C(=O)N[C@H](C(=O)N[C@@H](CCC(N)=O)C(=O)N[C@@H](Cc1c[nH]c2ccccc12)C(=O)N[C@@H](CC(C)C)C(=O)N[C@@H](CCS(C)(=O)=O)C(=O)N[C@@H](CC(=O)O)C(=O)N[C@H](C(N)=O)[C@@H](C)O)C(C)C [TP599] (H-H[Aib]QGTFTSDYSKYLDALAAK([AEEA-AEEA-γGlu-C18 diacid])DFVQWL[Met(O2)]DT-NH2; N-terminus assumed),hGCGR/hGLP1R (hTone),human GCGR,1.6
same,EC50,human GCGR; [1],< 5 nM
same,EC50,human GLP1R; [3],< 5 nM
CC(C)C[C@H](NC(=O)[C@H](Cc1ccc(O)cc1)NC(=O)[C@H](CCCCN)NC(=O)[C@H](CO)NC(=O)[C@H](Cc1ccc(O)cc1)NC(=O)[C@H](CC(=O)O)NC(=O)[C@H](CO)NC(=O)[C@@H](NC(=O)[C@H](Cc1ccccc1)NC(=O)[C@@H](NC(=O)CNC(=O)[C@H](CCC(N)=O)NC(=O)C(C)(C)NC(=O)[C@@H](N)Cc1c[nH]cn1)[C@@H](C)O)[C@@H](C)O)C(=O)N[C@@H](CC(=O)O)C(=O)N[C@@H](C)C(=O)N[C@@H](CCCNC(=N)N)C(=O)N[C@@H](C)C(=O)N[C@@H](C)C(=O)N[C@@H](CCCCNC(=O)COCCOCCNC(=O)COCCOCCNC(=O)CC[C@H](NC(=O)CCCCCCCCCCCCCCCCC(=O)O)C(=O)O)C(=O)N[C@@H](CC(=O)O)C(=O)N[C@@H](Cc1ccccc1)C(=O)N[C@H](C(=O)N[C@@H](CCC(N)=O)C(=O)N[C@@H](Cc1c[nH]c2ccccc12)C(=O)N[C@@H](CC(C)C)C(=O)N[C@@H](CCS(C)(=O)=O)C(=O)N[C@@H](CCC(N)=O)C(=O)N[C@H](C(N)=O)[C@@H](C)O)C(C)C [TP600] (H-H[Aib]QGTFTSDYSKYLDARAAK([AEEA-AEEA-γGlu-C18 diacid])DFVQWL[Met(O2)]QT-NH2; N-terminus assumed),hGCGR/hGLP1R (hTone),human GCGR,3.1
same,EC50,human GCGR; [1],< 5 nM
same,EC50,human GLP1R; [3],< 5 nM
CC(C)C[C@H](NC(=O)[C@H](Cc1ccc(O)cc1)NC(=O)[C@H](CCCCN)NC(=O)[C@H](CO)NC(=O)[C@H](Cc1ccc(O)cc1)NC(=O)[C@H](CC(=O)O)NC(=O)[C@H](CO)NC(=O)[C@@H](NC(=O)[C@H](Cc1ccccc1)NC(=O)[C@@H](NC(=O)CNC(=O)[C@H](CCC(N)=O)NC(=O)C(C)(C)NC(=O)[C@@H](N)Cc1c[nH]cn1)[C@@H](C)O)[C@@H](C)O)C(=O)N[C@@H](CC(=O)O)C(=O)N[C@@H](C)C(=O)N[C@@H](CCCNC(=N)N)C(=O)N[C@@H](C)C(=O)N[C@@H](C)C(=O)N[C@@H](CCC(N)=O)C(=O)N[C@@H](CC(=O)O)C(=O)N[C@@H](Cc1ccccc1)C(=O)N[C@H](C(=O)N[C@@H](CCC(N)=O)C(=O)N[C@@H](Cc1c[nH]c2ccccc12)C(=O)N[C@@H](CC(C)C)C(=O)N[C@@H](CCS(C)(=O)=O)C(=O)N[C@@H](CCCCNC(=O)COCCOCCNC(=O)COCCOCCNC(=O)CC[C@H](NC(=O)CCCCCCCCCCCCCCCCC(=O)O)C(=O)O)C(=O)N[C@H](C(N)=O)[C@@H](C)O)C(C)C [TP602] (H-H[Aib]QGTFTSDYSKYLDARAAQDFVQWL[Met(O2)]K([AEEA-AEEA-γGlu-C18 diacid])T-NH2),hGCGR/hGLP1R (hTone),human GCGR,6.3
same,EC50,human GCGR; [1],< 5 nM
same,EC50,human GLP1R; [3],< 5 nM
CC(C)C[C@H](NC(=O)[C@H](Cc1ccc(O)cc1)NC(=O)[C@H](CCCCN)NC(=O)[C@H](CO)NC(=O)[C@H](Cc1ccc(O)cc1)NC(=O)[C@H](CC(=O)O)NC(=O)[C@H](CO)NC(=O)[C@@H](NC(=O)[C@H](Cc1ccccc1)NC(=O)[C@@H](NC(=O)CNC(=O)[C@H](CCC(N)=O)NC(=O)C(C)(C)NC(=O)[C@@H](N)Cc1c[nH]cn1)[C@@H](C)O)[C@@H](C)O)C(=O)N[C@@H](CC(=O)O)C(=O)N[C@@H](C)C(=O)N[C@@H](CCCNC(=N)N)C(=O)N[C@@H](C)C(=O)N[C@@H](C)C(=O)N[C@@H](CCC(N)=O)C(=O)N[C@@H](CC(=O)O)C(=O)N[C@@H](Cc1ccccc1)C(=O)N[C@H](C(=O)N[C@@H](CCC(N)=O)C(=O)N[C@@H](Cc1c[nH]c2ccccc12)C(=O)N[C@@H](CC(C)C)C(=O)N[C@@H](CCS(C)(=O)=O)C(=O)N[C@@H](CCCCNC(=O)COCCOCCNC(=O)COCCOCCNC(=O)CC[C@H](NC(=O)CCCCCCCCCCCCCCCCCCC(=O)O)C(=O)O)C(=O)N[C@H](C(N)=O)[C@@H](C)O)C(C)C [TP603] (H-H[Aib]QGTFTSDYSKYLDARAAQDFVQWL[Met(O2)]K([AEEA-AEEA-γGlu-C20 diacid])T-NH2; N-terminus assumed),hGCGR/hGLP1R (hTone),human GCGR,1.6
same,EC50,human GCGR; [1],< 5 nM
same,EC50,human GLP1R; [3],< 5 nM
CC(C)C[C@H](NC(=O)[C@H](Cc1ccc(O)cc1)NC(=O)[C@H](CCCCN)NC(=O)[C@H](CO)NC(=O)[C@H](Cc1ccc(O)cc1)NC(=O)[C@H](CC(=O)O)NC(=O)[C@H](CO)NC(=O)[C@@H](NC(=O)[C@H](Cc1ccccc1)NC(=O)[C@@H](NC(=O)CNC(=O)[C@H](CCC(N)=O)NC(=O)C(C)(C)NC(=O)[C@@H](N)Cc1c[nH]cn1)[C@@H](C)O)[C@@H](C)O)C(=O)N[C@@H](CC(=O)O)C(=O)N[C@@H](C)C(=O)N[C@@H](CCCNC(=N)N)C(=O)N[C@@H](C)C(=O)N[C@@H](C)C(=O)N[C@@H](CCC(N)=O)C(=O)N[C@@H](CC(=O)O)C(=O)N[C@@H](Cc1ccccc1)C(=O)N[C@H](C(=O)N[C@@H](CCC(N)=O)C(=O)N[C@@H](Cc1c[nH]c2ccccc12)C(=O)N[C@@H](CC(C)C)C(=O)N[C@@H](CCS(C)(=O)=O)C(=O)N[C@@H](Cc1ccc(CNC(=O)COCCOCCNC(=O)COCCOCCNC(=O)CC[C@H](NC(=O)CCCCCCCCCCCCCCCCCCC(=O)O)C(=O)O)cc1)C(=O)N[C@H](C(N)=O)[C@@H](C)O)C(C)C [TP605] (H-H[Aib]QGTFTSDYSKYLDARAAQDFVQWL[Met(O2)][Phe(4-CH2NH2)]([AEEA-AEEA-γGlu-C20 diacid])T-NH2),EC50,human GCGR; [1],< 5 nM
same,EC50,human GLP1R; [3],< 5 nM
CC(C)C[C@H](NC(=O)[C@H](Cc1c[nH]c2ccccc12)NC(=O)[C@H](CCC(N)=O)NC(=O)[C@@H](NC(=O)[C@H](Cc1ccccc1)NC(=O)[C@H](CC(=O)O)NC(=O)[C@H](CCCCNC(=O)COCCOCCNC(=O)COCCOCCNC(=O)CC[C@H](NC(=O)CCCCCCCCCCCCCCCCC(=O)O)C(=O)O)NC(=O)[C@H](C)NC(=O)[C@H](C)NC(=O)[C@H](CCCNC(=N)N)NC(=O)[C@H](C)NC(=O)[C@](C)(CC(=O)O)NC(=O)[C@H](CC(C)C)NC(=O)[C@H](Cc1ccc(O)cc1)NC(=O)[C@H](CCCCN)NC(=O)[C@H](CO)NC(=O)[C@H](Cc1ccc(O)cc1)NC(=O)[C@H](CC(=O)O)NC(=O)[C@H](CO)NC(=O)[C@@H](NC(=O)[C@H](Cc1ccccc1)NC(=O)[C@@H](NC(=O)CNC(=O)[C@H](CCC(N)=O)NC(=O)C(C)(C)NC(=O)[C@@H](N)Cc1c[nH]cn1)[C@@H](C)O)[C@@H](C)O)C(C)C)C(=O)N[C@@H](CCS(C)(=O)=O)C(=O)N[C@@](C)(CC(=O)O)C(=O)N[C@H](C(N)=O)[C@@H](C)O [TP610] (H-H[Aib]QGTFTSDYSKYL[αMeD]ARAAK([AEEA-AEEA-γGlu-C18 diacid])DFVQWL[Met(O2)][αMeD]T-NH2; N-terminus assumed),hGCGR/hGLP1R (hTone),human GCGR,<0.01
same,EC50,human GLP1R; [2],> 5 nM

# Reference: US11566057B2, “Long-acting co-agonists of the glucagon and GLP-1 receptors” (Merck Sharp & Dohme Corp., priority 2017, dated 2023)
